According to patent EP0413299A1, “Antibiotic composition” (MERCIAN CORPORATION, priority 1989, dated 1991):
Read-outs that look alike come from different tables or passages of the source.

Tests used:
X-ray diffraction = format: physicochemical; settings: before storage
Description: The X-ray diffractions of the above-obtained samples were measured by using a JDX-8030 X-ray diffraction apparatus (JEOL LTD.) through a Ni-filter with a CuKα x-ray (40KV, 20mA) at a scanning speed of 1.2° /min. (Fig. 1).

[1] = acidic aqueous solution
[2] = format: physicochemical; settings: pH 4
Description: Solubility of the samples was determined by using a […] dissolution apparatus (Toyama Sangyo Co., LTD.) and 200 ml of buffer (adjusted at pH 4.0, prepared by mixing JP dissolution test solution 1 and JP dissolution test solution II) at 37 ± 0.5°C with stirring at 100 rpm paddle rotation. 250 mg (potency equivalent) of sample was added to the test solution, and the solubility of the sample was determined by high performance liquid chromatography under time course investigation. […] However, the solubility decreased immediately after about 5 minutes because of crystallization of the antibiotic. […] After storage for one month at 60°C , the solubility of the granules of Reference 3 was no more than 240μg/ml after five minutes, and became the same as that of the crystalline powders after 60 minutes.

For 4˝-O-(Para-methoxyphenylacetyl)tylosin, the X-ray diffraction peaks (X-ray diffraction) was “High X-ray diffraction peaks were observed”, the solubility ([1]; pH 2) was 1200 µg/mL and the solubility ([1]; pH 4) was 10 µg/mL. For the same substance, the solubility ([1]; pH 5) was 2 µg/mL, the solubility ([1]; pH 6.8) was 0.5 µg/mL and the solubility [2] was “no more than about a few micrograms per ml”.
